The values below come from patent publication US20250092395A1, “A GLUN2D INHIBITOR FOR USE IN THE TREATMENT OR RELAPSE PREVENTION OF A DEPRESSIVE EPISODE” (priority 2022, published 2025).

The subject of data set [1] is mice subjected to the chronic despair model (CDM). The data set can be described thus: Chronic despair model (CDM) swim test, immobility time. The format is in vivo. Conditions: CDM mice, test day. The procedure:
Induction phase: Mice were forced to swim in a glass cylinder (0 26 cm, 60 cm high) filled to 25 cm with 25° C. warm water for 10 min on 5 consecutive days. After the swimming, the animals were kept in their cages for two days before treatment and experiment readout was performed. The immobility time was measured in each session.
(§1) Behavioral Readout: After the treatment intervention, animals were either tested in an additional swim session (test day) to measure immobility time or tested in the InteliCage using the Nose-pokes sucrose preference test. For the assessment of the immobility time, mice were videotaped and two independent raters who were blinded to the experimental group analyzed the videos. Immobility time was defined as the cumulative time that the animals spend stationary with only enough movements of the tails or the forepaws to keep the head above the water surface. No distance is actively travelled except for passive floating, no directed movement of the front paws observed and the body of the animal mostly oriented parallel to the walls of the cylinder.

The subject of data set [2] is CDM mice. Briefly: Nose-poke sucrose preference test in CDM mice. Conditions: CDM mice, POST1 and POST2 nights. It counts as in vivo.
Source text: as §1
The IntelliCage system (TSE Systems) allows simultaneous analysis of spontaneous and exploratory behavior, activity pattern, and drinking preference of up to 16 group-housed mice implanted with radio-frequency identification (RFID) transponders. The unit consists of an open common space with 4 red shelters in the center and 4 recording corners. Mice have free access to food in the middle of the IntelliCage, water is available in the corners behind remote-controlled guillotine doors. Each corner is equipped with 2 drinking bottles and permits the visit of only one mouse at the same time. The scored parameters—the nosepokes toward the doors and the licks on the bottles—were monitored by a PC-based tracking software (IntelliCage Plus, TSE Systems). Initially, the mice were allowed to adapt to the IntelliCage for at least 7 days with water available ad libitum in all corners. Then for 3 days the animals were habituated to the sucrose taste: in each corner one of the bottles was filled with 1% sucrose solution and the other one with water. Both doors in the corner were open allowing free choice between the bottles. Next, a nosepoke adaptation period was carried out, where all doors were closed and the mice had to perform a nosepoke to open them. The opened door closes automatically after 5 s of drinking. In all tasks involving sucrose-filled bottles, the positions of the bottles were exchanged every 24 h. The Nosepoke SPT protocol was used (see Alboni et al.) for measurement of sucrose preference with gradually increasing effort (number of nosepokes) to reach the sucrose bottles for a short period of time (12 h). In this paradigm each door opens in response to a nosepoke and closes after 5 s licking. The number of nosepokes needed to open a door to a side with a sucrose containing bottle gradually increases (1, 2, 3, 4, 5, 6, 8, 10, 12, 16, 20, 24) after every 8 sucrose licking sessions. For each bottle the number of licks was recorded and the averaged sucrose preference was calculated as percentage of the total number of licks.

Data set [3] relates to NMDAR currents in CA1 pyramidal cells. The data set can be described thus: NMDAR currents in voltage-clamp recordings, CA1 pyramidal cells. The format is cell-based, mice. Conditions: +40 mV, CNQX, bath application 10 μM. Here is the method: After 20 min resting time at 35° C., slices were kept at room temperature in aCSF and transferred into the recording chamber (volume approx. 2-3 ml) and continuously superfused with aCSF (rate approx. 5-10 ml/min-). Differential interference contrast video microscopy was used to identify location of CA1 pyramidal neurons (Zeiss Axioskop 2 FS plus, Zeiss Microscopy, Germany). Beside optical identification neurons were classified according to their characteristic firing frequency adaptation to long depolarising current pulses. Borosilicate glass tubes (2.0 mm outer diameter, 0.5 mm wall thickness; Hilgenberg, Germany) were used to pull patch pipettes. Pipettes with a resistance of 5-10 MΩ were used and series resistance of 10-50 MΩ was compensated by bridge balance. Patch pipettes were filled with an internal solution containing (in mM) for EPSP-measurements: 132K-gluconate, 20KCL, 2MgCl2, 10Hepes, 0.1EGTA, 4 Na2ATP, 0.3NaGTP. PH was adjusted to 7.2 with KOH. For current measurements: 135Csgluconate, 2CsCl, 5 QX314, 10 Hepes, 10EGTA, 2MgCl2, 2Na2ATP, 2TEACI, pH was adjusted to 7.2 with HCl. Osmolarity (280-300 mosmol/1) was controlled at the beginning of each experimental day with Osmomat (Gonotec GmbH, Germany).

Data set [4] in a line: Side effects in in vivo experiments. Further details: species or system mice.
The test system of data set [5] is SOM-dependent feedback loop, CA1 PCs. The data set can be described thus: Feedback loop-activating protocol (FLAP) in CA1 PCs. The format is cell-based, mice.
For data set [6], the target named is recombinant GluN2D-containing receptors (Rattus norvegicus, UniProt Q62645). Conditions: recombinant GluN2D-containing receptors expressed in mammalian cells; cited from earlier work.

Molecules are shown by their SMILES. “Also recorded” adds a separate entry of the source. Where a name gives a salt, the structure may show the parent alone.

The IC50 is the midpoint of a concentration-inhibition curve.

Sequence of recombinant GluN2D-containing receptors (Q62645 28-1323, other chains not shown): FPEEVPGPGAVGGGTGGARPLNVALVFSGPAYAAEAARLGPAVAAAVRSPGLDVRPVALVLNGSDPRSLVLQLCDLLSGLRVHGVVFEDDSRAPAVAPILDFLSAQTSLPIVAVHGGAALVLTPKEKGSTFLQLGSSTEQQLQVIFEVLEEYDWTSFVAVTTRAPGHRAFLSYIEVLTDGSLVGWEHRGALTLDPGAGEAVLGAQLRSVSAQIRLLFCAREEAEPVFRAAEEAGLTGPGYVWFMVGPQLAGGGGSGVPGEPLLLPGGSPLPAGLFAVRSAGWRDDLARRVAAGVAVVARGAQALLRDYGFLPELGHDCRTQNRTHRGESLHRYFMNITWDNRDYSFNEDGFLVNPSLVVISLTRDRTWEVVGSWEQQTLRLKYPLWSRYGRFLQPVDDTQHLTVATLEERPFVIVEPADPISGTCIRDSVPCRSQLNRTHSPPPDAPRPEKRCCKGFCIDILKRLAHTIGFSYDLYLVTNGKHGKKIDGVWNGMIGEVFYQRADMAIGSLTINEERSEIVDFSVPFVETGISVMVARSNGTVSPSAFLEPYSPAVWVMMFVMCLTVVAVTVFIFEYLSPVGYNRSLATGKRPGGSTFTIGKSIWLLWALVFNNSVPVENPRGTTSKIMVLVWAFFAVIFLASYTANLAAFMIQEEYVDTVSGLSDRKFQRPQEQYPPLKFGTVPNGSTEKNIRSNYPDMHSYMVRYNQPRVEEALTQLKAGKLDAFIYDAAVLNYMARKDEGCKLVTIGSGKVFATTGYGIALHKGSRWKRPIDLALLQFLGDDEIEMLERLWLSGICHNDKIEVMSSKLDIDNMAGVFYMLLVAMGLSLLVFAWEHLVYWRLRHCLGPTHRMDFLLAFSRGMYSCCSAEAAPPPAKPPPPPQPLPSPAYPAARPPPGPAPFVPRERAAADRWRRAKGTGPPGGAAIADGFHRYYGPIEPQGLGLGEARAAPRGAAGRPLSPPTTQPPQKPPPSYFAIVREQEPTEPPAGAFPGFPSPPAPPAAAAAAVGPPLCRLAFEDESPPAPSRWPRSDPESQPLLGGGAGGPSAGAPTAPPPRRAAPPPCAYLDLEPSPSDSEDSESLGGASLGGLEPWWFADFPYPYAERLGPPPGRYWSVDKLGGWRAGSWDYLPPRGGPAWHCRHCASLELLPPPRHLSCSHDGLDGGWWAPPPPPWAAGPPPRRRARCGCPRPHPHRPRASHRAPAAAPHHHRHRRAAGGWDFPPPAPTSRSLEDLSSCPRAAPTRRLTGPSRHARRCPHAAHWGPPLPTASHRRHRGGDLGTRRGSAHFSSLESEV

As to `CNC1(c2ccccc2Cl)CCCCC1=O` (stereo not shown) [R,S-ketamine, R,S-Ketamine hydrochloride], the immobility time result in data set [1] (10 mg/kg R,S-ketamine intraperitoneal, vs control) is “significantly reduced”. For the same compound, the sucrose preference entry in data set [2] (single R,S-ketamine injection, hydrochloride) is recorded as “renormalized; also recorded: completely reestablished”. The “amplitude of NMDAR currents in CA1 pyramidal cells” value in data set [3] (hydrochloride) was “reduced the amplitude”; in data set [3] (listed as R,S-Ketamine, hydrochloride), “significantly blocking NMDAR currents in CA1 cells”.

In the case of `CCN(CC)C(=O)Oc1ccc(C(=O)Nc2cccc3cc[nH]c23)cc1` [NAB-14], in data set [1] (injection of NAB-14 (5/10 μM as printed)), the immobility time entry is reported as “significantly reduced”. Further, in data set [2] (NAB (5 μM as printed) injection), the sucrose preference result was “fully reestablished”. Further, in data set [3], the “amplitude of NMDAR currents in CA1 pyramidal cells” value was “no relevant NMDAR reduction”. Besides, the side effects result in data set [4] is listed as “did not show side effects”. For the same compound, the “EPSP amplitude in the absence of AP bursts” value in data set [5] is recorded as “neither NAB14 nor diazepam wash-in significantly altered the EPSP amplitude; also recorded: no significant pre/post changes”. Also, the IC50 in data set [6] is 580 nM.
